Measurements as given in BindingDB's records for doi:10.1016/j.chembiol.2007.05.004 (University of Tokyo, 2007).

Target: T1, Cytochrome P450 1B1 (Homo sapiens, UniProt Q16678)
T1 sequence (Q16678 whole entry): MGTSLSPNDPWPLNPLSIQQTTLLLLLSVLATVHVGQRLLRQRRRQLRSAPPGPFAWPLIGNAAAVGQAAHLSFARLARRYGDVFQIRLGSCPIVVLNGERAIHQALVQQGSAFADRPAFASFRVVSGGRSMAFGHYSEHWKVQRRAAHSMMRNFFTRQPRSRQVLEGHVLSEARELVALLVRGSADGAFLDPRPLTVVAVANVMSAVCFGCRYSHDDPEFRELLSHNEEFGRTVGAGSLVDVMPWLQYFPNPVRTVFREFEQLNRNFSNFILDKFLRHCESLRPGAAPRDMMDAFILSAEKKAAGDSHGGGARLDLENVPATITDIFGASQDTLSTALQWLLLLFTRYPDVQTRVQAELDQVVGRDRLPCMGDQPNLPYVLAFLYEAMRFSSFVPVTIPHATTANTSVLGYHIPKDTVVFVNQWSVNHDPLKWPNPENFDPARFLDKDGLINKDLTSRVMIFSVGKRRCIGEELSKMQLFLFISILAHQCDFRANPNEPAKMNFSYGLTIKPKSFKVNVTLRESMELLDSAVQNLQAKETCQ
Test: EROD Assay
Conditions: pH 8; 37 °C
Description: The ethoxyresorufin-O-deethylase (EROD) assay is used to test the activity of CYP1B1.

| Structure (SMILES) | Ki |
| --- | --- |
| Oc1ccc(/C=C/c2cc(O)cc(O)c2)cc1 [5-[(E)-2-(4-hydroxyphenyl)ethenyl]benzene-1,3-diol] | 177 nM |
| Oc1cc(O)cc(/C=C/c2ccccc2)c1 [(E)-5-(2-phenylethenyl)-1,3-benzenediol] | 74.3 nM |
| Oc1cc(O)cc(/C=C/c2ccc(F)cc2)c1 [Stilbene, 8f] | 323 nM |
| Oc1cc(O)cc(/C=C/c2ccoc2)c1 [Stilbene, 15f] | 1110 nM |
| Oc1cc(O)cc(/C=C/c2ccsc2)c1 [Stilbene, 16f] | 1180 nM |
